Data taken from ChEMBL document CHEMBL4402577, “Discovery and Optimization of a Compound Series Active against Trypanosoma cruzi, the Causative Agent of Chagas Disease” (J Med Chem, 2020).
Converted amounts (≈) assume the structure as drawn.

Tests used:
[1] = tested on: Trypanosoma cruzi; experiment: Antitrypanosomal activity against Trypanosoma cruzi Tulahuen strain C2C4 trypomastigotes infected in rat L6 cells incubated for 96 hrs by photometric method based assay; format: functional, organism-based; conditions: Tulahuen strain C2C4, L6, 96 h
[2] = tested on: L6; experiment: Cytotoxicity against rat L6 cells incubated for 70 hrs by resazurin dye based assay; format: cell-based; conditions: L6, 70 h
[3] = Selectivity ratio, EC50 for cytotoxicity against rat L6 cells to EC50 for antitrypanosomal activity against Trypanosoma cruzi Tulahuen strain C2C4 trypomastigotes infected in rat L6 cells; format: toxicity, cell-based; conditions: read-out: Ratio EC50
[4] = Intrinsic clearance in CD1 mouse liver microsomes at 0.5 uM measured up to 30 mins in presence of NADPH by UPLC-MSMS analysis; format: ADME, Microsome; conditions: 0.5 h
[5] = Kinetic aqueous solubility of compound in DMSO by nephelometric analysis; format: physicochemical; conditions: read-out: Kinetic_solubility

| Structure (SMILES) | EC50 [1] | EC50 [2] | selectivity ratio [3] | intrinsic clearance [4] | solubility kinetic [5] |
| --- | --- | --- | --- | --- | --- |
| CC(=O)Nc1ccc2[nH]c(=O)n([C@H]3CO[C@H](C(C)(C)C)OC3)c(=O)c2c1 | 0.58 µM | 27 µM | 47 | < 0.5 mL/min/g |  |
| CC(=O)Nc1ccc2[nH]c(=O)n(CCCC3CCCCC3)c(=O)c2c1 | 0.48 µM | 87 µM | 180 |  |  |
| O=C(Cn1ccnc1[N+](=O)[O-])NCc1ccccc1 [BENZNIDAZOLE] | 1.94 µM |  |  |  |  |
| CC(=O)Nc1ccc2[nH]c(=O)n(C3CCC(C)(C)CC3)c(=O)c2c1 | 0.18 µM | 12 µM | 67 | 3.7 mL/min/g | 128 µM (≈ 42.2 µg/mL) |
| CC(=O)Nc1ccc2[nH]c(=O)n(CCc3ccccc3)c(=O)c2c1 | 1.1 µM | 139 µM | 130 |  |  |
| CC(=O)Nc1ccc2[nH]c(=O)n(CCC(C)C)c(=O)c2c1 | 9.7 µM | 163 µM | 17 |  |  |
| CC(=O)Nc1ccc2[nH]c(=O)n([C@H]3CC[C@@H](C(F)(F)F)CC3)c(=O)c2c1 | 4.3 µM | 18 µM | 4.2 | 2.7 mL/min/g | 180 µM (≈ 66.5 µg/mL) |
| CC(=O)Nc1cnc2[nH]c(=O)n([C@H]3CC[C@H](C(C)C)CC3)c(=O)c2c1 | 0.061 µM | 32 µM | 520 | 1.4 mL/min/g |  |
| O=c1[nH]c2ccc(-c3cccnc3)cc2c(=O)n1CCC1CCCCC1 | 1.9 µM | 14 µM | 7.4 |  |  |
| CC(=O)Nc1ccc2[nH]c(=O)n(C(CC3CCCCC3)C(N)=O)c(=O)c2c1 (centres undefined) | 170 µM | 222 µM | 1.3 |  |  |
| CC(=O)Nc1ccc2[nH]c(=O)n([C@H]3CC[C@H](C(C)(C)C)CC3)c(=O)c2c1 | 0.022 µM | 3.9 µM | 180 | 3.2 mL/min/g | 131 µM (≈ 46.8 µg/mL) |
| CC(=O)Nc1ccc2[nH]c(=O)n([C@H]3CC[C@H](C(C)(C)F)CC3)c(=O)c2c1 | 2.6 µM | 17 µM | 6.5 |  |  |
| CC(=O)Nc1ccc2[nH]c(=O)n([C@H]3CC[C@H](OC(C)C)CC3)c(=O)c2c1 | 3.1 µM | 136 µM | 44 | < 0.5 mL/min/g |  |
| CC(=O)Nc1ccc2[nH]c(=O)n(CCC3CCCCC3)c(=O)c2c1 | 0.73 µM | 52 µM | 110 |  |  |
| CC(=O)Nc1ccc2[nH]c(=O)n(C3CCN(C(=O)OC(C)(C)C)C3)c(=O)c2c1 (racemic) | 54 µM | 170 µM | 3.1 |  |  |
| CC(=O)Nc1ccc2[nH]c(=O)n(C3CCCCCC3)c(=O)c2c1 | 2.1 µM | 112 µM | 53 |  |  |
| CC(=O)Nc1ccc2[nH]c(=O)n(C(C)(C)C)c(=O)c2c1 | 61 µM | 37 µM | 0.6 |  |  |
| CC(=O)Nc1ccc2[nH]c(=O)n(C3CCN(C(=O)c4ccccc4)CC3)c(=O)c2c1 | 140 µM | 135 µM | 1 |  |  |
| CC(=O)Nc1ccc2[nH]c(=O)n([C@H]3CC[C@H](C(C)(C)O)CC3)c(=O)c2c1 | 139 µM | 136 µM | 0.98 |  | 130 µM (≈ 46.7 µg/mL) |

| Structure (SMILES) | EC50 [1] | EC50 [2] | selectivity ratio [3] | intrinsic clearance [4] | solubility kinetic [5] |
| --- | --- | --- | --- | --- | --- |
| CC(C)[C@H]1CC[C@@H](n2c(=O)[nH]c3ncc(N)cc3c2=O)CC1 | 0.57 µM | 46 µM | 81 | 4.8 mL/min/g | 17 µM (≈ 5.14 µg/mL) |
| CC(=O)Nc1ccc2[nH]c(=O)n(C3CCCCC3)c(=O)c2c1 | 4.2 µM | 70 µM | 17 |  |  |
| CC(=O)Nc1cnc2[nH]c(=O)n([C@H]3CC[C@@H](C(C)C)CC3)c(=O)c2c1 | 0.38 µM | 16 µM | 42 | 10 mL/min/g | 15 µM (≈ 5.17 µg/mL) |
| CC[C@H]1CC[C@@H](n2c(=O)[nH]c3ncc(N)cc3c2=O)CC1 | 1.2 µM | 250 µM | 210 | 1.7 mL/min/g | < 17 µM |
| COc1cc([C@@H]2c3cc4c(cc3[C@H](O)[C@H]3COC(=O)[C@H]23)OCO4)cc(OC)c1OC [PODOFILOX] |  | 0.014 µM |  |  |  |
| CC(=O)Nc1ccc2[nH]c(=O)n([C@H](C)C3CCCCC3)c(=O)c2c1 | 2.2 µM | 88 µM | 40 |  |  |
| CC(C)(C)C(=O)Nc1ccc2[nH]c(=O)n(CCC3CCCCC3)c(=O)c2c1 | 7.1 µM | 13 µM | 1.8 |  |  |
| CC(=O)Nc1ccc2[nH]c(=O)n(C3CCC(C(C)(C)C)C3)c(=O)c2c1 (racemic) | 0.02 µM | 41 µM | 2100 | 31 mL/min/g |  |
| CC(=O)Nc1ccc2[nH]c(=O)n(C3CCN(C(C)(C)C)CC3)c(=O)c2c1 | 220 µM | > 280 µM | 1 |  |  |
| Cc1noc(C)c1-c1ccc2[nH]c(=O)n(CCC3CCCCC3)c(=O)c2c1 | 120 µM | 88 µM |  |  |  |
| N#CCc1ccc2[nH]c(=O)n(CCC3CCCCC3)c(=O)c2c1 | 2.1 µM | 70 µM | 33 |  |  |
| CC[C@H]1CC[C@H](n2c(=O)[nH]c3ncc(NC(C)=O)cc3c2=O)CC1 | 0.3 µM | 215 µM | 720 | 0.5 mL/min/g | 22 µM (≈ 7.27 µg/mL) |
| CC(=O)Nc1ccc2[nH]c(=O)n(CCCC(C)C)c(=O)c2c1 | 4 µM | 173 µM | 43 |  |  |
| CC(=O)Nc1ccc2[nH]c(=O)n([C@H]3CC[C@@H](C(C)(C)C)CC3)c(=O)c2c1 | 0.017 µM | 5 µM | 290 | < 0.5 mL/min/g | 95 µM (≈ 34 µg/mL) |
| CC(=O)Nc1ccc2[nH]c(=O)n([C@H]3CC[C@@H](C(C)C)CC3)c(=O)c2c1 | 0.2 µM | 41 µM | 210 | 26 mL/min/g |  |
| CC(=O)Nc1ccc2[nH]c(=O)n([C@H]3CC[C@@H](NC(=O)OC(C)(C)C)CC3)c(=O)c2c1 | 2.6 µM | 118 µM | 45 |  |  |
| CC(=O)Nc1ccc2[nH]c(=O)n(Cc3ccccc3)c(=O)c2c1 | 17 µM | 148 µM | 9 |  |  |
| CC(C)(C)[C@H]1CC[C@@H](n2c(=O)[nH]c3ccc(N)cc3c2=O)CC1 |  |  |  | 3.9 mL/min/g | 240 µM (≈ 75.7 µg/mL) |
| CC(=O)Nc1ccc2[nH]c(=O)n(-c3ccc(C(C)(C)C)cc3)c(=O)c2c1 | 4.3 µM | 17 µM | 4 |  |  |

| Structure (SMILES) | EC50 [1] | EC50 [2] | selectivity ratio [3] | intrinsic clearance [4] | solubility kinetic [5] |
| --- | --- | --- | --- | --- | --- |
| CC(=O)Nc1cnc2[nH]c(=O)n(CCC3CCCCC3)c(=O)c2c1 | 2.3 µM | 130 µM | 57 |  | 97 µM (≈ 32 µg/mL) |
| CCCCCCn1c(=O)[nH]c2ccc(NC(C)=O)cc2c1=O | 2.9 µM | 154 µM | 53 |  |  |
| CC(C)(C)[C@H]1CC[C@@H](n2c(=O)[nH]c3ncc(N)cc3c2=O)CC1 | 0.24 µM | 44 µM | 183 | 1.6 mL/min/g |  |
| CC(=O)Nc1ccc2[nH]c(=O)n([C@H]3CC[C@H](OC(C)(C)C)CC3)c(=O)c2c1 | 3.5 µM | 123 µM | 35 | < 0.5 mL/min/g |  |
| CC(C)(C)[C@H]1CC[C@H](n2c(=O)[nH]c3ncc(N)cc3c2=O)CC1 | 0.66 µM | 63 µM | 95 | 0.5 mL/min/g |  |
| CC[C@H]1CC[C@H](n2c(=O)[nH]c3ccc(N)cc3c2=O)CC1 | 0.12 µM | 32 µM | 270 | 4.2 mL/min/g |  |
| O=c1[nH]c2ccc(-c3cncnc3)cc2c(=O)n1CCC1CCCCC1 | 14 µM | 126 µM | 9 |  |  |
| CC(=O)Nc1ccc2[nH]c(=O)n(C3CCN(C(=O)OC(C)(C)C)CC3)c(=O)c2c1 | 30 µM | 127 µM | 4.2 |  |  |
| CC(=O)Nc1ccc2[nH]c(=O)n(CCCc3ccccc3)c(=O)c2c1 | 7.5 µM | 134 µM | 18 |  |  |
| Nc1ccc2[nH]c(=O)n(CCC3CCCCC3)c(=O)c2c1 | 1.9 µM | 19 µM | 10 |  |  |
| CC(=O)Nc1ccc2[nH]c(=O)n(C3CCC(C)CC3)c(=O)c2c1 (mixture of isomers) | 1.4 µM | 54 µM | 39 |  |  |
| CC(=O)Nc1ccc2[nH]c(=O)n(C3CCCC3)c(=O)c2c1 | 12 µM | 184 µM | 15 |  |  |
| CC(=O)Nc1ccc2[nH]c(=O)n([C@H]3CCO[C@@H](C(C)(C)C)C3)c(=O)c2c1 (racemic) | 2.1 µM | 125 µM | 60 | 16 mL/min/g |  |
| CC(C)[C@H]1CC[C@H](n2c(=O)[nH]c3ccc(N)cc3c2=O)CC1 | 0.027 µM | 22 µM | 810 |  |  |
| CC(=O)Nc1ccc2[nH]c(=O)n(CC3CCCCC3)c(=O)c2c1 | 2.3 µM | 54 µM | 23 |  |  |
| COCCn1c(=O)[nH]c2ccc(NC(C)=O)cc2c1=O | 35 µM | 0.1 µM | 0.003 |  |  |
| CC(=O)Nc1ccc2[nH]c(=O)n(CCC3=CCCCC3)c(=O)c2c1 | 2.1 µM | 107 µM | 51 |  |  |
| CC(=O)Nc1ccc2[nH]c(=O)n([C@H]3CC[C@H](C(F)(F)F)CC3)c(=O)c2c1 | 0.35 µM | 9.5 µM | 27 | < 0.5 mL/min/g |  |
| O=c1[nH]c2ccc(-c3ccncc3)cc2c(=O)n1CCC1CCCCC1 | 1.7 µM | 14 µM | 8 |  |  |
